This is an account of results in publication PMC5343222, “Inhibitory Activities of Stauntonia hexaphylla Leaf Constituents on Rat Lens Aldose Reductase and Formation of Advanced Glycation End Products and Antioxidant” (BioMed Research International, 2017).

Usually IC50 stands for the point on the concentration scale where inhibition reaches its midpoint.

Experiment [1] relates to advanced glycation end products (AGEs) formation. Kind of experiment: Bovine serum albumin-methylglyoxal assay on AGEs formation. It is filed as biochemical. The conditions noted are these: BSA 50 mg/mL + methylglyoxal 100 mM, 37°C, 24 h; mean ± SEM. The protocol: Bovine serum albumin (50 mg/mL) was incubated with methylglyoxal (100 mM) in sodium phosphate buffer (0.1 M, pH 7.4) in the presence of various concentrations of the compounds (including a control) at 37°C for 24 h. Then the fluorescent intensity was measured at an excitation wavelength of 355 nm and an emission wavelength of 460 nm with a luminescence spectrometer LS50B (Perkin-Elmer Ltd., Buckinghamshire, England). […] All reagents and samples were sterilized by filtration through […] membrane filters.

The nature of experiment [2]: DPPH radical scavenging assay. The conditions noted are these: for IC50: 15 min incubation in the dark, mean ± SEM; for inhibitory effect on DPPH (in words): at the same concentration when compared to other compounds. Here is the method: The stable free radical, DPPH, was used to determine the free radical scavenging activity of the SHL extracts. Briefly, a 0.32 mM solution of DPPH in methanol was prepared, and then 180 µl of this solution was mixed with 30 µl of each sample (1.0 to 5.0 mg/mL in methanol). After 15 min of incubation in the dark, the decrease in the absorbance of the solution was measured at 570 nm on a microplate reader (EL800 Universal Microplate reader, Bio-Tek instruments, Winooski, VT, USA).
A general note: The DPPH test is a chemical assay of radical scavenging.

Experiment [3] deals with T1, rat lens aldose reductase (RLAR) (Rattus norvegicus, UniProt P07943).
T1 construct: the supernatant was collected and used as the RLAR; from tissue; host or cells: lens of Sprague-Dawley rats (crude homogenate supernatant)
Kind of experiment: In vitro determination of RLAR inhibition (NADPH decrease at 340 nm, DL-glyceraldehyde substrate). It counts as biochemical. The conditions noted are these: crude RLAR from Sprague-Dawley rat lenses; mean ± SEM, three independent experiments in duplicate. Here is the method: Crude RLAR was prepared as follows: lenses […] were removed from Sprague-Dawley rats and frozen at −70°C until use. Noncataractous transparent lenses were pooled and a homogenate was prepared in 0.1 M phosphate buffer saline (pH 6.2). RLAR homogenate was then centrifuged at 9600 ×g for 20 min. After centrifugation in a refrigerated centrifuge, the supernatant was collected and used as the RLAR. All procedures were carried out at 4°C [10].
RLAR activity was assayed spectrophotometrically by measuring the decrease in the absorption of NADPH at 340 nm over a 4 min period using DL-glyceraldehyde as the substrate. Each 1.0 mL cuvette contained equal units of the enzyme, 0.1 M sodium phosphate buffer (pH 6.2), 0.3 mM NADPH, with or without 10 mM of the substrate, and an inhibitor [11].

For `N=C(N)NN` [Aminoguanidine, aminoguanidine, reference compound], in experiment [1], the half-inhibitory concentration (IC50) stood at 820 ± 79.4 µM and the “IC50 AGEs” value was found to be 90.70 ± 8.71 µg/mL.
For `O=C(O)CCc1ccc(O)c(O)c1` [Compound 1, 3-(3,4-dihydroxyphenyl)-propionic acid], the results for the 50% inhibitory concentration (IC50) in experiment [2], in experiment [3] and in experiment [1] were 110 ± 9.39 µM, greater than 1000 µM and 184 ± 17.6 µM, respectively.
As for `O=C(/C=C/c1ccc(O)c(O)c1)O[C@@H]1C[C@](O)(C(=O)O)C[C@@H](O)[C@H]1O` [Compound 2, chlorogenic acid], the IC50 in experiment [3] was 8.35 ± 0.45 µM; in experiment [1], greater than 1000 µM.
On to `O=C(/C=C/c1ccc(O)c(O)c1)OC[C@H]1O[C@@H](OCCc2ccc(O)c(O)c2)[C@H](O)[C@@H](O)[C@@H]1O` [Compound 4, calceolarioside B], for which the IC50 in experiment [2] was 94.6 ± 6.86 µM; in experiment [3], 24 ± 2.3 µM; in experiment [1], greater than 1000 µM.
On the same counts, the results for `O=c1cc(-c2ccc(O)c(O[C@@H]3O[C@H](CO)[C@@H](O)[C@H](O)[C@H]3O)c2)oc2cc(O)cc(O)c12` [Compound 5, luteolin-3′-O-β-D-glucopyranoside] are 96.3 ± 9.19 µM, 7.34 ± 0.35 µM and 118 ± 11.5 µM.
On the same counts, the results for `O=c1c(O[C@@H]2O[C@H](CO)[C@@H](O)[C@H](O)[C@H]2O)c(-c2ccc(O)c(O)c2)oc2cc(O)cc(O)c12` [Compound 6, quercetin-3-O-β-D-glucopyranoside] are 122 ± 10.9 µM, 10.4 ± 1.38 µM and greater than 1000 µM.
For `O=c1cc(-c2ccc(O)c(O)c2)oc2cc(O[C@@H]3O[C@H](CO)[C@@H](O)[C@H](O)[C@H]3O)cc(O)c12` [Compound 7, luteolin-7-O-β-D-glucopyranoside], the IC50 in experiment [2] was greater than 1000 µM; in experiment [3], 16.1 ± 1.2 µM; in experiment [1], greater than 1000 µM. In addition, in experiment [2], the “inhibitory effect on DPPH (in words)” value was “no an inhibitory effect”.
Compound `O=C1O[C@H]([C@@H](O)CO)C(O)=C1O` [L-ascorbic acid, reference compound] had a 50% inhibitory concentration (IC50) in experiment [2] of 54.4 ± 5.73 µM.
`O=c1cc(-c2ccc(O)c(O[C@@H]3O[C@H](CO)[C@@H](O)[C@H](O)[C@H]3O)c2)oc2cc(O)cc(O)c12` [luteolin-3′-O-β-D-glucopyranoside] displayed an IC50 in experiment [3] of 7.34 to 24 µM.
On to `O=c1cc(-c2ccc(O)c(O)c2)oc2cc(O[C@@H]3O[C@H](CO)[C@@H](O)[C@H](O)[C@H]3O)cc(O)c12` [luteolin-7-O-β-D-glucopyranoside], for which the half-maximal inhibitory concentration (IC50) in experiment [3] was 7.34 to 24 µM.
Same read-out and setting: as for `O=c1c(O[C@@H]2O[C@H](CO)[C@@H](O)[C@H](O)[C@H]2O)c(-c2ccc(O)c(O)c2)oc2cc(O)cc(O)c12` [quercetin-3-O-β-D-glucopyranoside], the figure is 7.34 to 24 µM.
neochlorogenic acid [Compound 3]: the IC50 is greater than 1000 µM in experiment [2], 72 ± 25.8 µM in experiment [3] and 115 ± 10.5 µM in experiment [1]. Further, the “inhibitory effect on DPPH (in words)” value in experiment [2] is reported as “no an inhibitory effect”.
